Results reported in patent US20050267067A1, “Radical reaction inhibitors, method for inhibition of radical reactions, and use thereof” (priority 2002, published 2005).

Columns and labels:
calf serum albumin (BSA) = assay: Modification of BSA by lipid peroxides (protein carbonyl, OLAARPs); format: biochemical; conditions: for OLAARPs Formation: (%) / Protein carbonyl Formation: (%): BSA, versus no saccharide; for Formed OLAARPs / Formed Protein carbonyl: 37° C., 24 hours
Experimental: In this experiment, saccharide solutions were prepared to give an equal total saccharide molar concentration in each solution.
As a negative control, PBS was used.
To five milliliters of either of the above saccharide solutions for testing or the negative control was added 10 mg of calf serum albumin (BSA) or L-lysine, followed by dissolving. To each of the resulting solutions was added 25 μg of 2,4-decadienal or malondialdehyde (MDA) as a lipid peroxide, followed by reaction at 37° C. for 24 hours. After completion of the reaction, protein carbonyl and reaction products of oxidized lipids/aminoacids (OLAARPs) formed as aldehyde adducts were quantified on the calorimetric method. […] The formation levels of protein carbonyl and OLAARPs were determined based on the absorbances obtained in this experiment, in terms of the molar absorbance coefficient for each molecule as disclosed in Biochim. Biophys.
To each of the resulting mixtures was added 600 μl of 30% trichloroacetic acid, and the mixture was allowed to stand at 0° C. for one hour and centrifuged at 10,000 rpm for 15 min to obtain a precipitate, followed by washing the resulting precipitate four times with two milliliters of ethanol/ethylacetate (1:1), respectively, adding 1.5 ml of 6M-guanidine hydrochloride/20 mM-NaPi/TFA (pH 2.3) to the resultant, allowing the mixture to stand at 37° C. for 30 min, and measuring the absorbance of the resulting mixture at a wavelength of 580 nm, ε=35,000 M^−1 cm^−1.

[1] = Oxidation of rat small intestinal mucosal enzyme solution by AAPH (conjugated diene, TBARS); format: biochemical
Experimental: As a model system for examining the influence of cyclotetrasaccharide on small intestinal mucous disorders, there was provided a system for examining the influence of cyclotetrasaccharide on the oxidation of a rat small intestinal mucosal enzyme solution by 2,2-azo-bis(2-amidinopropane)-dihydrochloric acid (AAPH).
To two grams of a rat small intestinal mucosal acetone powder, commercialized by Sigma Chemical Company, St. Louis, Mo., USA, was added 20 ml of 50 mM PBS (pH 7.2) and homogenized in ice bath. The mixture was centrifuged at 10,000 rpm for 10 min to obtain a supernatant for use as a rat small intestinal mucosal enzyme solution containing 10 mg/ml of proteins. A half milliliter of the rat small intestinal mucosal enzyme solution, 0.5 ml of a 100 mM AAPH solution, and 0.5 ml of a 200 mM of the crystalline cyclotetrasaccharide pentahydrate prepared in Experiment 1-1 were mixed, followed by incubation at 37° C. for […]. During the incubation, the mixture was sampled at two and six hours after initiating the incubation for quantifying the formed conjugated diene, while the specimens sampled at six hours after initiating the incubation were quantified for the formed TBARS.

[2] = Inhibition of hydroxy radical formation (H2O2/iron sulfate, DMPO spin trap, ESR); conditions: for Amount of formed hydroxy radical: ESR peak ratio to Mn2+ standard, relative value; for Hydroxy radical formation (%): versus system with no saccharide
Experimental: Each of the resulting mixtures was mixed to initiate reaction, injected into a cell for measuring electron spin resonance spectrum (ESR), set to a detector, and measured for formation level of hydroxy radical at a prescribed period of time after initiating reaction. […] For measurement of ESR, “Free Radical Monitor JES-FR30” was used, and the formation level of hydroxy radical was determined by calculating a ratio of a peak level detected first after initiating the measurement among the characteristic signal peaks characteristic of 5,5-dimethyl-1-pyrroline-oxide-OH (hydroxy radical), used as a spin trapping agent, and a peak level of Mn^2+ of an external standard installed in the apparatus of “JES-FR30”, and expressed as relative values in Table 1.

sucrase = assay: Sucrase activity of rat small intestinal mucosal enzyme solution after AAPH oxidation; format: biochemical
Experimental: One milliliter of the above rat small intestinal mucosal enzyme solution, one milliliter of a 100 mM AAPH solution, one milliliter of a 50 mM phosphate buffer (pH 7.2), and one milliliter of a 400 mM of the crystalline cyclotetrasaccharide pentahydrate prepared in Experiment 1-1 were mixed, incubated at 37° C. for two hours, and measured for the activities of sucrase and maltase.
After incubated at 37° C. for 30 min, the mixture was quantified for free glucose by the GOD method.

[3] = Radical oxidation of linoleic acid by AAPH (conjugated diene, TBARS); conditions: for Formed TBARS / Formed conjugated diene: 37° C., AAPH; for Conjugated diene formation: (%) / TBARS formation: (%): versus system with no cyclotetrasaccharide
Source text: As a negative control, a system of PBS with no cyclotetrasaccharide was provided and measured similarly as above. Conjugated diene was quantified by measuring the absorbance of test samples at a wavelength of 234 nm according to the method by Okamura et al., in Journal of Agricultural and Food Chemistry, Vol. 42, page 1,612 (1994). TABRS was quantified by allowing the sampled test specimens to react with thiobarbituric acid and measured for absorbance of the reaction mixture at a wavelength of 532 nm according to the method by Ohgawara et al., in Journal of Lipid Research, Vol. 19, page 1,053 (1978). The quantification of the formed TBARS in test samples was determined with a calibration curve provided in such a manner of diluting 1,1,3,3-tetraethoxypropane with ethanol into 10, 50 and 100 μg/ml dilutes, allowing the dilutes with thiobarbituric acid similarly as the test samples, measuring the absorbance of the resulting mixtures similarly as above, and drawing calibration curve based on the measured absorbances and the amount of TBARS calculated theoretically. The quantification of the formed conjugated diene in the test samples was determined by calculating the absorbances of the samples obtained in this experiment, based on the molar absorbance coefficient of molecules disclosed in Journal of Agricultural and Food Chemistry, Vol. 42, page 1,612 (1994). Tables 4 and 5 show the results on measurement for the formation level of conjugated diene and TBARS, respectively.

[4] = added lipid peroxide 2,4-decadienal
[5] = added lipid peroxide malondialdehyde (MDA)
[6] = 2,4-decadienal, listed as cyclotetrasaccharide
[7] = MDA, listed as cyclotetrasaccharide
[8] = reaction time 6 hr, listed as cyclotetrasaccharide

In the case of `OC[C@H]1O[C@H](O[C@H]2O[C@H](CO)[C@@H](O)[C@H](O)[C@H]2O)[C@H](O)[C@@H](O)[C@@H]1O` [α, α-Trehalose, α, α-trehalose, reference compound], the “OLAARPs Formation: (%)” value (calf serum albumin (BSA); 2,4-decadienal) is reported as “(63) %”, the “Protein carbonyl Formation: (%)” value (calf serum albumin (BSA); 2,4-decadienal) is reported as “(58) %” and the “OLAARPs Formation: (%)” value (calf serum albumin (BSA); MDA) is reported as “(56) %”. The “Protein carbonyl Formation: (%)” value (calf serum albumin (BSA); MDA) was “(60) %”, the “Formed OLAARPs” value (calf serum albumin (BSA); [4]) was 2.67 μmol/g-BSA and the “Formed Protein carbonyl” value (calf serum albumin (BSA); [4]) was 8.26 μmol/g-BSA. For the same molecule, the “Formed OLAARPs” value (calf serum albumin (BSA); [5]) was 3.24 μmol/g-BSA and the “Formed Protein carbonyl” value (calf serum albumin (BSA); [5]) was 1.45 μmol/g-BSA.
With `OCC1OC2OCC3O[C@H](O[C@H]4C(O)C(CO)OC(OCC5O[C@H](O[C@@H](C1O)C2O)C(O)C(O)[C@@H]5O)C4O)C(O)C(O)[C@@H]3O` (stereo partly drawn) [Cyclotetrasaccharide, cyclo{→6}-α-D-glucopyranosyl-(1→3)-α-D-glucopyranosyl-(1→6)-α-D-glucopyranosyl-(1→3)-α-D-glucopyranosyl-(1→}] the Formed conjugated diene ([1]; reaction time 0 hr, AAPH, 37° C.) was 0.00 μg/mg-protein, the Formed conjugated diene ([1]; reaction time 2 hr, AAPH, 37° C.) was 2.46 μg/mg-protein and the “Conjugated diene formation: (%)” value ([1]; reaction time 2 hr, versus system with no cyclotetrasaccharide) was “(15) %”. The Formed conjugated diene ([1]; reaction time 6 hr, AAPH, 37° C.) was 61.84 μg/mg-protein, the “Conjugated diene formation: (%)” value ([1]; reaction time 6 hr, versus system with no cyclotetrasaccharide) was “(60) %” and the Formed TBARS ([1]; six hours after initiating the incubation, AAPH, 37° C.) was 3.71 µg/mg-protein. For the same molecule, the “TBARS formation (%)” value ([1]; six hours, versus system with no cyclotetrasaccharide) was “(61) %”, the “Amount of formed hydroxy radical” value ([2]; 15 mM saccharide) was 1.009 and the “Hydroxy radical formation (%)” value ([2]; 15 mM saccharide) was “(34) %”. For the same molecule, the “Hydroxy radical formation (%)” value ([2]; 15 mM saccharide, listed as cyclotetrasaccharide) was “about 34%”, the “Amount of formed hydroxy radical” value ([2]; 38 mM saccharide) was 0.265 and the “Hydroxy radical formation (%)” value ([2]; 38 mM saccharide) was “(9) %”. For the same molecule, the “Hydroxy radical formation (%)” value ([2]; 38 mM saccharide, listed as cyclotetrasaccharide) was “about 9%”, the “Amount of formed hydroxy radical” value ([2]; 75 mM saccharide) was 0.228 and the “Hydroxy radical formation (%)” value ([2]; 75 mM saccharide) was “(8) %”. The “Amount of formed hydroxy radical” value ([2]; 150 mM saccharide) was 0.125, the “Hydroxy radical formation (%)” value ([2]; 150 mM saccharide) was “(4) %” and the Sucrase activity (sucrase; enzyme solution incubated with AAPH at 37° C. for two hours, with or without cyclotetrasaccharide) was 0.0105 u/mg-protein. The “Sucrase Relative residual activity (%)” value (sucrase; versus system with no AAPH, 37° C., two hours) was “(72) %”, the “OLAARPs Formation: (%)” value (calf serum albumin (BSA); 2,4-decadienal) was “(69) %” and the “Protein carbonyl Formation: (%)” value (calf serum albumin (BSA); 2,4-decadienal) was “(45) %”. For the same molecule, the “OLAARPs Formation: (%)” value (calf serum albumin (BSA); [6]) was “about 69%”, the “Protein carbonyl Formation: (%)” value (calf serum albumin (BSA); [6]) was “about 45%” and the “OLAARPs Formation: (%)” value (calf serum albumin (BSA); MDA) was “(80) %”. For the same molecule, the “Protein carbonyl Formation: (%)” value (calf serum albumin (BSA); MDA) was “(45) %”, the “OLAARPs Formation: (%)” value (calf serum albumin (BSA); [7]) was “about 80%” and the “Protein carbonyl Formation: (%)” value (calf serum albumin (BSA); [7]) was “about 45%”. The “Formed OLAARPs” value (calf serum albumin (BSA); [4]) was 2.92 μmol/g-BSA, the “Formed Protein carbonyl” value (calf serum albumin (BSA); [4]) was 6.34 μmol/g-BSA and the “Formed OLAARPs” value (calf serum albumin (BSA); [5]) was 4.68 μmol/g-BSA. For the same molecule, the “Formed Protein carbonyl” value (calf serum albumin (BSA); [5]) was 1.09 μmol/g-BSA, the “Formed TBARS” value ([3]; reaction time 0 hr) was 0.00 μg/g-linoleic acid and the Formed conjugated diene ([3]; reaction time 0 hr) was 0.27 μg/g-linoleic acid. The “Conjugated diene formation: (%)” value ([3]; reaction time 0 hr) was “(100) %”, the “Formed TBARS” value ([3]; reaction time 1 hr) was 1.52 μg/g-linoleic acid and the Formed conjugated diene ([3]; reaction time 1 hr) was 5.16 μg/g-linoleic acid. The “Conjugated diene formation: (%)” value ([3]; reaction time 1 hr) was “(55) %”, the “TBARS formation: (%)” value ([3]; reaction time 1 hr) was “(55) %” and the “Formed TBARS” value ([3]; reaction time 2 hr) was 3.55 μg/g-linoleic acid. For the same molecule, the Formed conjugated diene ([3]; reaction time 2 hr) was 9.15 μg/g-linoleic acid, the “Conjugated diene formation: (%)” value ([3]; reaction time 2 hr) was “(51) %” and the “TBARS formation: (%)” value ([3]; reaction time 2 hr) was “(35) %”. The “Formed TBARS” value ([3]; reaction time 6 hr) was 7.97 μg/g-linoleic acid, the Formed conjugated diene ([3]; reaction time 6 hr) was 23.83 μg/g-linoleic acid and the “Conjugated diene formation: (%)” value ([3]; reaction time 6 hr) was “(40) %”. For the same molecule, the “TBARS formation: (%)” value ([3]; reaction time 6 hr, listed as Cyclotetra-saccharide) was “(30) %”, the “Conjugated diene formation: (%)” value [3, 8] was “about 40%” and the “TBARS formation: (%)” value [3, 8] was “about 30%”.
